Measured values: patent publication US5240946A, “((2-(amino-3,4-dioxo-1-cyclobuten-1-yl)amino)alkyl)-acid derivatives” (American Home Products Corporation, priority 1992, dated 1993)
pIC50: −log10 of the molar value.

Assays:
[1] = molecular target: NMDA receptors; experiment: (3H)CPP binding displacement in rat brain homogenate; conditions: for pIC50: (3H)CPP 8 nM, rat brain homogenate, 23° C.
Procedure: It was determined that the compounds of this invention are competitive NMDA antagonists by determining their ability to inhibit binding of 3-(2-carboxypiperazinyl-4-yl)propyl-1-phosphonic acid (CPP), a known competitive NMDA antagonist, at NMDA receptors in rat brain homogenate. In a manner similar to the procedure of Murphy et al., J. Pharmacol. Exp. Therap. 240 (3) 778 (1987), rat brain homogenates from which endogenous glutamate had been removed were incubated with (3H)CPP (8 nM), the compound being tested and then buffer each for 15 minutes at 23° C. to obtain a final volume of 2 milliliters. The amount of radio ligand displaced by the test compound is expressed as a percentile of the radio ligand displaced by NMDA. The inhibitory concentration of test compound that will displace 50% of the labeled CPP is determined from dose-responseevaluations.
(§1) Where the displacement of CPP binding is expressed as a percentage, it is at the μM concentration given at the concentration in the parenthesis. Similarly, where percent inhibition of lethality at dose in parenthesis.

[2] = tested on: male Swiss-albino mice (CD-1 strain), NMDA-induced lethality; experiment: NMDA induced lethality in mice (survival); format: in vivo, mouse; conditions: for ED50: Mus musculus, 0.5 h, mice pretreated 30 min before NMDA 195 mg/kg i.p., observed 30 min; for percent inhibition of lethality: NMDA 195 mg/kg i.p.
Procedure: (§2) The mice were then observed for 30 minutes, noting the latency of onset of generalized myoclonus (uncontrollable hind leg scratching of limbs and/or torso muscle jerking with loss of righting reflex) and death. From the latter, the ED50 for survival is determined. In this standard experimental test procedure, the specific compounds tested and their activity, which representatively establish the activity for all the compounds herein, is presented in the following Table.
as §1

[3] = tested on: Parkinsonian-like symptoms induced by MPTP in rats; conditions: Turski et al., Nature 1991; cited from earlier work
[4] = tested on: ischemic brain damage in gerbils; conditions: Boast et al., Brain Research 1988; cited from earlier work
[5] = tested on: NMDA-induced convulsions in mice; conditions: Lehmann et al. 1987; cited from earlier work
[6] = tested on: male Swiss-albino mice (CD-1 strain), generalized myoclonus; experiment: NMDA-induced generalized myoclonus in mice; format: in vivo; conditions: Mus musculus, ip, read-out: ED90 dose for generalized myoclonus
Procedure: as §2

[7] = at dose in parenthesis 5 (in mg/kg)

| Compound | pIC50 [1] | ED50 [2] | also measured |
| --- | --- | --- | --- |
| CCOC(=O)CNc1c(N)c(=O)c1=O [1(a), N-(2-amino-3,4-dioxo-1-cyclobutenyl)glycine ethyl ester] | 3.72 | > 100 mg/kg | – |
| O=c1c2c(c1=O)N(Cc1nnn[nH]1)CCCN2 [Example 11, 2-[(1H-Tetrazol-5-yl)methyl]-2,6-diazabicyclo[5.2.0]non-1(7)-ene-8,9-dione] | 7.42 | > 10 mg/kg | – |
| CC1(C)CNc2c(c(=O)c2=O)N(CCP(=O)(O)O)C1 [9(a), [2-(4,4-dimethyl-8,9-dioxo-2,6-diazabicyclo[5.2.0]non-1(7)-en-2-yl)ethyl]phosphonic acid] | 6.55 | – | percent inhibition of lethality [2, 7]: 50% |
| O=c1c2c(c1=O)N(CCP(=O)(O)O)CCCN2 [Example 8, [2-(8,9-Dioxo-2,6-diazabicyclo[5.2.0]non-1(7)-en-2-yl)ethyl]phosphonic acid] | 7.52 | 2.1 mg/kg | – |
| Nc1c(NCCn2oc(=O)[nH]c2=O)c(=O)c1=O [Example 2, 2-[2-[(2-Amino-3,4-dioxo-1-cyclobuten-1-yl)amino]ethyl]-1,2,4-oxadiazolidine-3,5-dione] | 5.28 | > 100 mg/kg | – |
| CN(CP(=O)(O)O)c1c(N)c(=O)c1=O [6(a), [[(2-amino-3,4-dioxo-1-cyclobuten-1-yl)methylamino]methyl]phosphonic acid] | < 5.00 | – | – |
| C=CCN(CC(=O)O)c1c(N)c(=O)c1=O [Example 3, N-(2-Amino-3,4-dioxo-1-cyclobuten-1-yl)-N-(2-propenyl)glycine] | 4.98 | > 100 mg/kg | – |
| O=C(O)CN1CCCNc2c1c(=O)c2=O [Example 10, 8,9-Dioxo-2,6-diazabicyclo[5.2.0]non-1(7)-ene-2-acetic acid] | 6.26 | > 20 mg/kg | – |
| Nc1c(NCP(=O)(O)O)c(=O)c1=O [4(a), [[(2-amino-3,4-dioxo-1-cyclobutenyl)amino]methyl]phosphonic acid] | < 5.00 | – | – |
| CN(CCP(=O)(O)O)c1c(N)c(=O)c1=O [Example 6, [2-[(2-Amino-3,4-dioxo-1-cyclobuten-1-yl)methylamino]ethyl]phosphonic acid] | 6.00 | – | percent inhibition of lethality ([2]; at dose in parenthesis 50 (in mg/kg)): 50% |
| Nc1c(NCCCCP(=O)(O)O)c(=O)c1=O [4(c), [4-[(2-amino-3,4-dioxo-1-cyclobuten-1-yl)amino]butyl]phosphonic acid] | – | > 30 mg/kg | displacement of CPP binding ([1]; at 10 μM): 68% |
| O=C(O)C1CN(CCCP(=O)(O)O)CCN1 (stereo not shown) [CPP, 4-(3-phosphonopropyl)-2-piperazinecarboxylic acid] | – | – | prevention of Parkinsonian-like symptoms induced by MPTP [3]: shown to prevent the Parkinsonian-like symptoms induced by MPTP; prevention of ischemic brain damage [4]: shown to prevent ischemic brain damage in gerbils; prevention of NMDA-induced convulsions [5]: NMDA-induced convulsions have been prevented by CPP in mice |
| Nc1c(NCCCP(=O)(O)O)c(=O)c1=O [4(b), [3-[(2-amino-3,4-dioxo-1-cyclobuten-1-yl)amino]propyl]phosphonic acid] | 5.59 | > 100 mg/kg | – |
| Nc1c(NCC(=O)O)c(=O)c1=O [1(b), N-(2-amino-3,4-dioxo-1-cyclobutenyl)glycine] | – | > 100 mg/kg | – |
| C=C(C)CN(CC(=O)O)c1c(N)c(=O)c1=O [3(a), N-(2-amino-3,4-dioxo-1-cyclobutenyl)-N-(2-methyl-2-propenyl)glycine] | 4.52 | > 100 mg/kg | – |
| O=C(O)CCN1CCCNc2c1c(=O)c2=O [10(a), 3-(8,9-dioxo-2,6-diazabicyclo[5.2.0]non-1(7)-en-2-yl)propanoic acid] | 6.47 | > 20 mg/kg | – |
| CNc1c(NCCC(=O)O)c(=O)c1=O [2(a), N-[2-(methylamino)-3,4-dioxo-1-cyclobutenyl]beta-alanine] | 4.71 | > 100 mg/kg | – |
| Nc1c(NCCC(=O)O)c(=O)c1=O [Example 1, N-(2-Amino-3,4-dioxo-1-cyclobuten-1-yl)beta-alanine] | – | > 100 mg/kg | – |
| O=c1c2c(c1=O)N(CCc1nnn[nH]1)CCCN2 [11(a), 2-[2-(1H-tetrazol-5-yl)ethyl]-2,6-diazabicyclo[5.2.0]non-1(7)-ene-8,9-dione] | – | > 5 mg/kg | displacement of CPP binding ([1]; at 10 μM): 40% |
| Nc1c(NCCP(=O)(O)O)c(=O)c1=O [Example 4, [2-[(2-Amino-3,4-dioxo-1-cyclobuten-1-yl)amino]ethyl]phosphonic acid] | 6.33 | – | – |
| O=c1c2c(c1=O)N(CCP(=O)(O)O)CCCCN2 [Example 12, [2-(9,10-Dioxo-2,7-diazabicyclo[6.2.0]dec-1(8)-en-2-yl)ethyl]phosphonic acid] | 7.39 | – | percent inhibition of lethality [2, 7]: 80% |
| CN[C@H](CC(=O)O)C(=O)O [NMDA, N-methyl-D-aspartic acid] | – | – | ED90 [6]: 195 mg/kg |
| Nc1c(N(CC(=O)O)Cc2ccccc2)c(=O)c1=O [3(b), N-(2-amino-3,4-dioxo-1-cyclobutenyl)-N-(phenylmethyl)glycine] | – | > 100 mg/kg | displacement of CPP binding ([1]; at 100 μM): 50% |
| O=c1c2c(c1=O)N(C/C=C/P(=O)(O)O)CCCN2 [9(c), [(E)-3-(8,9-dioxo-2,6-diazabicyclo[5.2.0]non-1(7)-en-2-yl)-1-propenyl]phosphonic acid] | < 5.00 | > 5 mg/kg | – |
| O=c1c2c(c1=O)N(CCP(=O)(O)O)CCN2 [Example 7, [2-(7,8-Dioxo-2,5-diazabicyclo[4.2.0]oct-1(6)-en-2-yl)ethyl]phosphonic acid] | 7.04 | 6.2 mg/kg | – |
| Nc1c(NC/C=C/CP(=O)(O)O)c(=O)c1=O [Example 5, [(E)-4-[(2-Amino-3,4-dioxo-1-cyclobuten-1-yl)amino]-2-butenyl]phosphonic acid] | – | > 30 mg/kg | displacement of CPP binding ([1]; at 10 μM): 52% |
| Nc1c(NCCCC(=O)O)c(=O)c1=O [1(c), 4-[(2-amino-3,4-dioxo-1-cyclobutenyl)amino]butanoic acid] | 4.99 | > 100 mg/kg | – |
| O=c1c2c(c1=O)N(CCCP(=O)(O)O)CCCN2 [9(b), [3-(8,9-dioxo-2,6-diazabicyclo[5.2.0]non-1(7)-en-2-yl)propyl]phosphonic acid] | < 6.00 | > 10 mg/kg | – |
| O=C(O)CCNc1c(NCc2ccccc2)c(=O)c1=O [2(b), 3-[[3,4-dioxo-2[(phenylmethyl)amino]-1-cyclobutenyl]amino]propanoic acid] | < 4.00 | > 100 mg/kg | – |
| O=c1c2c(c1=O)N(CCP(=O)(O)O)CC(O)CN2 (stereo not shown) [Example 9, [2-(4-hydroxy-8,9-dioxo-2,6-diazabicyclo[5.2.0]non-1(7)-en-2-yl)ethyl]phosphonic acid] | 7.72 | 1.8 mg/kg | – |
